Square brackets hold non-standard residues; d marks the D form. Ends that are not written are not given here. pT = C[C@@H](OP(=O)(O)O)[C@H](N)C(=O)O; pS = N[C@@H](COP(=O)(O)O)C(=O)O
Legend:
[1] = test system: expanded lymphocyte cultures from deceased donor livers, cirrhotic livers and HCC; test: ICS for MHC-I-pP reactivity of liver-derived lymphocyte cultures after phosphopeptide-specific expansion; assay type: cell-based, human; details: for ppCTL response, HCC Distal HCC 1: HCC 1 Distal; for ppCTL response, HCC Tumor HCC 1: HCC 1 Tumor; for ppCTL response, HCC Distal HCC 4: HCC 4 Distal
[2] = test system: CD8^+ T cells (PBMCs); test: Intracellular cytokine staining (ICS) of PBMCs after 7 days of stimulation with MHC-I-pP (healthy donors, HH patients); assay type: cell-based, human; details: for Reactive CD8^+ T cell population, HH2: HH patient HH2; for Reactive CD8^+ T cell population, HH3: HH patient HH3; for Reactive CD8^+ T cell population, HH8: HH patient HH8; for Reactive CD8^+ T cell population, HH11: HH patient HH11
Description: From this, CD8^+ T cell responses against newly identified MHC class I-associated phosphopeptides in healthy individuals and patients with chronic liver disease were investigated. Twenty-one of the newly identified HCC-associated HLA-A*0201-restricted phosphopeptides were selected (see Table 17) for further immunological testing in HLA-A*0201 positive patients. MHC-I-pP-specific cytotoxic CD8^+ T cell responses (ppCTL) were assessed using intracellular cytokine staining (ICS) and several cytokines and surface markers were assessed in parallel. After 7 days of stimulation with the respective MHC-I-pP and no other cytokines, CD3- and CD8-expressing T cells were stained for at least two different cytokines (IFN-γ, TNF-α) and when required CD107a expression as a marker for their cytotoxic potential.
First, peripheral blood mononuclear cells (PBMCs) from healthy donors and patients with hereditary hemochromatosis (HH) were analyzed. HH is a chronic liver disease characterized by excessive intestinal absorption of dietary iron resulting in a pathological deposition of iron in the liver. PBMCs or lymphocytes from liver tissue were extracted and specifically stimulated with (phospho-) peptides for 7 days before intracellular cytokine staining (ICS). Doublets and dead cells, using a fixable viability dye, were excluded. Lymphocytes were gated on CD3^+ and CD8^+ double positive cells and were analysed for expression of IFNγ, TNFα-, and CD107a.

[3] = test system: unexpanded lymphocyte cultures (CD8^+ T cells); test: ICS for MHC-I-pP reactivity of lymphocyte cultures without expansion (Table 23, No Expansion); details: HH6
[4] = test system: expanded TIL / IHL cultures; test: ICS for MHC-I-pP reactivity of liver-derived lymphocyte cultures after unspecific rapid expansion protocol (REP); assay type: cell-based, human
[5] = pP-specifically expanded culture

Substance	Reactive CD8^+ T cells, pP-specific Expansion, Do2 [1]	Reactive CD8^+ T cells, pP-specific Expansion, Do4 [1]	Reactive CD8^+ T cells, pP-specific Expansion, HH6 [1]	ppCTL response, Deceased Donor Liver Do 2 [1, 5]	ppCTL response, Deceased Donor Liver Do 3 [1, 5]	ppCTL response, Deceased Donor Liver Do 4 [1, 5]	ppCTL response, Deceased Donor Liver Do 6 [1, 5]	ppCTL response, End-stage Liver Cirrhosis IHL 11 [1, 5]	ppCTL response, End-stage Liver Cirrhosis IHL 13 [1, 5]	ppCTL response, HCC Distal HCC 1 [1, 5]	ppCTL response, HCC Tumor HCC 1 [1, 5]	ppCTL response, HCC Distal HCC 4 [1, 5]	Reactive CD8^+ T cell population, HH2 [2]	Reactive CD8^+ T cell population, HH3 [2]	Reactive CD8^+ T cell population, HH8 [2]	Reactive CD8^+ T cell population, HH11 [2]	Reactive CD8^+ T cells, No Expansion, HH6 [3]	other results
RQAsIELPSMAV: LSP1 phosphopeptide, HLA-A*0201 (RQA[pS]IELPSMAV; listed as Homo sapiens)	0 (<0.25% reactive CD8^-+ T cells)	0 (<0.25% reactive CD8^-+ T cells)	0 (<0.25% reactive CD8^-+ T cells)	0 (<0.25% reactive CD8-+ T cells)	0 (<0.25% reactive CD8-+ T cells)	0 (<0.25% reactive CD8-+ T cells)	1 (0.25-2.5% reactive CD8-+ T cells)	0 (<0.25% reactive CD8-+ T cells)	0 (<0.25% reactive CD8-+ T cells)	0 (<0.25% reactive CD8-+ T cells)	0 (<0.25% reactive CD8-+ T cells)	0 (<0.25% reactive CD8-+ T cells)	0 (<0.25% reactive CD8^-+ T cells)	0 (<0.25% reactive CD8^-+ T cells)	0 (<0.25% reactive CD8^-+ T cells)	0 (<0.25% reactive CD8^-+ T cells)	1 (0.25-2.5% reactive CD8^-+ T cells)	
RTFsPTYGL: SYNM phosphopeptide, HLA-A*0201 (RTF[pS]PTYGL; listed as Homo sapiens)	0 (<0.25% reactive CD8^-+ T cells)	0 (<0.25% reactive CD8^-+ T cells)	3 (5-7.5% reactive CD8^-+ T cells)	0 (<0.25% reactive CD8-+ T cells)	0 (<0.25% reactive CD8-+ T cells)	0 (<0.25% reactive CD8-+ T cells)	0 (<0.25% reactive CD8-+ T cells)	0 (<0.25% reactive CD8-+ T cells)	0 (<0.25% reactive CD8-+ T cells)	0 (<0.25% reactive CD8-+ T cells)	0 (<0.25% reactive CD8-+ T cells)	0 (<0.25% reactive CD8-+ T cells)	0 (<0.25% reactive CD8^-+ T cells)	0 (<0.25% reactive CD8^-+ T cells)	0 (<0.25% reactive CD8^-+ T cells)	0 (<0.25% reactive CD8^-+ T cells)	1 (0.25-2.5% reactive CD8^-+ T cells)	Reactive CD8^+ T cells, Non-specific Expansion, Do2 ([4]; Do2): 0 (<0.25% reactive CD8^-+ T cells); Reactive CD8^+ T cells, Non-specific Expansion, Do4 ([4]; Do4): 0 (<0.25% reactive CD8^-+ T cells); Reactive CD8^+ T cells, Non-specific Expansion, HH6 ([4]; HH6): 0 (<0.25% reactive CD8^-+ T cells); ppCTL response, End-stage Liver Cirrhosis IHL 12 ([1]; pP-specifically expanded culture, End-stage Liver Cirrhosis IHL 12): 0 (<0.25% reactive CD8-+ T cells); ppCTL response, End-stage Liver Cirrhosis IHL 15 ([1]; pP-specifically expanded culture, End-stage Liver Cirrhosis IHL 15): 1 (0.25-2.5% reactive CD8-+ T cells); ppCTL response, HCC Distal HCC 9 ([1]; pP-specifically expanded culture, HCC 9 Distal): 0 (<0.25% reactive CD8-+ T cells); ppCTL response, HCC Tumor HCC 9 ([1]; pP-specifically expanded culture, HCC 9 Tumor): 0 (<0.25% reactive CD8-+ T cells); ppCTL response, HCC Distal HCC 12 ([1]; pP-specifically expanded culture, HCC 12 Distal): 0 (<0.25% reactive CD8-+ T cells); Reactive CD8^+ T cell population, HH6 ([2]; HH patient HH6): 0 (<0.25% reactive CD8^-+ T cells); Reactive CD8^+ T cell population, HD1 ([2]; Healthy donor HD1): 0 (<0.25% reactive CD8^-+ T cells); Reactive CD8^+ T cell population, HD4 ([2]; Healthy donor HD4): 0 (<0.25% reactive CD8^-+ T cells); Reactive CD8^+ T cell population, HD5 ([2]; Healthy donor HD5): 0 (<0.25% reactive CD8^-+ T cells)
RQDsTPGKVFL: NR2C1 phosphopeptide, HLA-A*0201 (RQD[pS]TPGKVFL; listed as Homo sapiens)	0 (<0.25% reactive CD8^-+ T cells)	0 (<0.25% reactive CD8^-+ T cells)	1 (0.25-2.5% reactive CD8^-+ T cells)	1 (0.25-2.5% reactive CD8-+ T cells)	0 (<0.25% reactive CD8-+ T cells)	0 (<0.25% reactive CD8-+ T cells)	0 (<0.25% reactive CD8-+ T cells)	0 (<0.25% reactive CD8-+ T cells)	0 (<0.25% reactive CD8-+ T cells)	0 (<0.25% reactive CD8-+ T cells)	0 (<0.25% reactive CD8-+ T cells)	0 (<0.25% reactive CD8-+ T cells)	0 (<0.25% reactive CD8^-+ T cells)	0 (<0.25% reactive CD8^-+ T cells)	0 (<0.25% reactive CD8^-+ T cells)	0 (<0.25% reactive CD8^-+ T cells)	2 (2.5-5.0% reactive CD8^-+ T cells)	
KLFPDtPLAL: ILF3 phosphopeptide, HLA-A*0201 (KLFPD[pT]PLAL; listed as Homo sapiens)	0 (<0.25% reactive CD8^-+ T cells)	0 (<0.25% reactive CD8^-+ T cells)	0 (<0.25% reactive CD8^-+ T cells)	0 (<0.25% reactive CD8-+ T cells)	0 (<0.25% reactive CD8-+ T cells)	0 (<0.25% reactive CD8-+ T cells)	0 (<0.25% reactive CD8-+ T cells)	0 (<0.25% reactive CD8-+ T cells)	0 (<0.25% reactive CD8-+ T cells)	0 (<0.25% reactive CD8-+ T cells)	0 (<0.25% reactive CD8-+ T cells)	0 (<0.25% reactive CD8-+ T cells)	0 (<0.25% reactive CD8^-+ T cells)	0 (<0.25% reactive CD8^-+ T cells)	0 (<0.25% reactive CD8^-+ T cells)	0 (<0.25% reactive CD8^-+ T cells)	0 (<0.25% reactive CD8^-+ T cells)	
RQLsSGVSEI: HSPB1 phosphopeptide, HLA-A*0201 (RQL[pS]SGVSEI; listed as Homo sapiens)	0 (<0.25% reactive CD8^-+ T cells)	0 (<0.25% reactive CD8^-+ T cells)	0 (<0.25% reactive CD8^-+ T cells)	0 (<0.25% reactive CD8-+ T cells)	0 (<0.25% reactive CD8-+ T cells)	0 (<0.25% reactive CD8-+ T cells)	0 (<0.25% reactive CD8-+ T cells)	0 (<0.25% reactive CD8-+ T cells)	0 (<0.25% reactive CD8-+ T cells)	0 (<0.25% reactive CD8-+ T cells)	0 (<0.25% reactive CD8-+ T cells)	0 (<0.25% reactive CD8-+ T cells)	0 (<0.25% reactive CD8^-+ T cells)	0 (<0.25% reactive CD8^-+ T cells)	0 (<0.25% reactive CD8^-+ T cells)	0 (<0.25% reactive CD8^-+ T cells)	2 (2.5-5.0% reactive CD8^-+ T cells)	
RLFsKELRC: TAF13 phosphopeptide, HLA-A*0201 (RLF[pS]KELRC; listed as Homo sapiens)	0 (<0.25% reactive CD8^-+ T cells)	0 (<0.25% reactive CD8^-+ T cells)	0 (<0.25% reactive CD8^-+ T cells)	1 (0.25-2.5% reactive CD8-+ T cells)	0 (<0.25% reactive CD8-+ T cells)	0 (<0.25% reactive CD8-+ T cells)	0 (<0.25% reactive CD8-+ T cells)	0 (<0.25% reactive CD8-+ T cells)	0 (<0.25% reactive CD8-+ T cells)	0 (<0.25% reactive CD8-+ T cells)	0 (<0.25% reactive CD8-+ T cells)	0 (<0.25% reactive CD8-+ T cells)	2 (2.5-5.0% reactive CD8^-+ T cells)	0 (<0.25% reactive CD8^-+ T cells)	0 (<0.25% reactive CD8^-+ T cells)		0 (<0.25% reactive CD8^-+ T cells)	
